Calls of active or inactive are those of the source. The calls are words filed in the database; no cut-off is given here.
Experiments:
[1] = test system: HaCaT; assay: Induction of SCL expression in human HaCaT cells at 5 uM by qRT-PCR analysis relative to control; assay type: functional
[2] = target: T1, 15-hydroxyprostaglandin dehydrogenase [NAD(+)] (Homo sapiens, UniProt P15428); assay: Inhibition of 15-PGDH (unknown origin) by fluorescence spectrophotometry
T1 sequence (P15428 whole entry): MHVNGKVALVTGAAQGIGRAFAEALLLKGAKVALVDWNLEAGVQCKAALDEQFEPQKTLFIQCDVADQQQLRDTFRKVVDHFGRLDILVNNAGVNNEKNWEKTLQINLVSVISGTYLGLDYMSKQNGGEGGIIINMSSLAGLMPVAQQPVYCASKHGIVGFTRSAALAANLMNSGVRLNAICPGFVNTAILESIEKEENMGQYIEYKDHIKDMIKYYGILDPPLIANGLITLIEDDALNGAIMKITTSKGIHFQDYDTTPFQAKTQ

[3] = target: T2, 15-hydroxyprostaglandin dehydrogenase [NAD(+)] (Homo sapiens) (UniProt P15428); assay: Inhibition of 15-PGDH in human A549 cells assessed as increase in PGE2 level after 12 hrs by immunoassay; assay type: cell-based
T2 sequence (whole entry): T1 sequence (P15428 whole entry)

[4] = target: T2, 15-hydroxyprostaglandin dehydrogenase [NAD(+)] (Homo sapiens); assay: Inhibition of 15-PGDH in human A549 cells assessed as increase in PGE2 level at 5 uM after 12 hrs by immunoassay relative to control; assay type: cell-based
[5] = test system: HaCaT; assay: In vitro wound healing effect on human HaCaT cells assessed as improvement wound healing at 5 uM after 48 hrs; assay type: functional, cell-based
[6] = test system: HaCaT; assay: In vitro wound healing effect on human HaCaT cells assessed as wound healing at 5 uM after 48 hrs in presence of 15-PGDH; assay type: functional, cell-based
[7] = test system: HS27; assay: In vitro wound healing effect on human HS27 cells assessed as wound healing at 5 uM after 48 hrs; assay type: functional, cell-based
[8] = test system: HS27; assay: Induction of SCL expression in human HS27 cells at 5 uM by qRT-PCR analysis; assay type: functional, cell-based
[9] = test system: HS27; assay: Induction of LMO2 expression in human HS27 cells at 5 uM by qRT-PCR analysis; assay type: functional, cell-based
[10] = test system: HS27; assay: Induction of GATA2 expression in human HS27 cells at 5 uM by qRT-PCR analysis; assay type: functional, cell-based
[11] = test system: HS27; assay: Induction of RUNX1 expression in human HS27 cells at 5 uM by qRT-PCR analysis; assay type: functional, cell-based
[12] = test system: HS27; assay: Induction of KDR expression in human HS27 cells at 5 uM by qRT-PCR analysis; assay type: functional, cell-based
[13] = test system: HS27; assay: Induction of C-MYB expression in human HS27 cells at 5 uM by qRT-PCR analysis; assay type: functional, cell-based

Row | IC50 [2] | Activity [3] | Activity [4] | fold change (FC) [4] | SMILES | Activity [1] | Activity [5] | inhibition [6] | inhibition [7] | fold change (FC) [1] | Activity [8] | Activity [9] | Activity [10] | Activity [11] | Activity [12] | Activity [13]
1 | – | – | – | – | COc1ccc2c(c1)c(CC(=O)O)c(C)n2C(=O)c1ccc(Cl)cc1 | inactive | – | – | – | – | – | – | – | – | – | –
2 | 4 nM | Dose-dependent effect | 451 pg/mL | 7 | O=C1NC(=O)/C(=C/c2ccc(OCCc3ccccc3)c(Br)c2)S1 | – | Active | inactive | inactive | 2 | inactive | inactive | inactive | inactive | inactive | inactive
3 | – | – | Active | – | O=C1NC(=O)/C(=C/c2ccc(OCCCc3ccccc3)c(Br)c2)S1 | – | – | – | – | – | – | – | – | – | – | –
